Reference: the supplement of paper PMC10331698
± gives the standard deviation of the averaged measurements.

Columns and labels:
Assay in all cases: level (log10 ratio to DMSO vehicle control); higher = higher biomarker level / cell amount than vehicle control
[1] = compound: O=C(O)C(F)(F)C(F)(F)C(F)(F)OC(F)(F)F [Perfluoro(4-methoxybutanoic) acid] (in DMSO)
Procedure: (§1)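 BioMAP Diversity Plus panel of 12 human primary cell co-culture systems (3C, 4H, LPS, SAg, BT, BF4T, BE3C, CASM3C, HDF3CGF, KF3CT, MyoF, Mphg). Compounds were added 1 h before stimulation and left for 24 h (MyoF 48 h; BT 72 h for soluble read-outs or 6 d for IgG). Biomarkers were read by ELISA, cytotoxicity by SRB, PBMC viability and proliferation by Alamar Blue. Each well value was divided by the mean of 8 DMSO control wells on the same plate and log10 transformed; duplicate blinded samples were tested at 4 concentrations.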

[2] = compound: O=C(O)C(F)(OC(F)(F)C(F)(OC(F)(F)C(F)(OC(F)(F)C(F)(F)C(F)(F)F)C(F)(F)F)C(F)(F)F)C(F)(F)F [Perfluoro-(2,5,8-trimethyl-3,6,9-trioxadodecanoic)acid] (in DMSO)
Procedure: as §1

[3] = compound: OCC(F)(F)C(F)(F)C(F)(F)C(F)(F)C(F)(F)C(F)(F)CO [1H,1H,8H,8H-Perfluorooctane-1,8-diol] (in DMSO)
Procedure: as §1

[4] = compound: O=C(O)C=C(C(F)(F)F)C(F)(F)F [3,3-Bis(trifluoromethyl)-2-propenoic acid] (in DMSO)
Procedure: as §1

[5] = compound: O=C(O)CCC(F)(C(F)(F)F)C(F)(F)F [4,4-bis(Trifluoromethyl)-4-fluoropropanoic acid] (in DMSO)
Procedure: as §1

[6] = compound: OCCC(F)(F)C(F)(F)C(F)(F)C(F)(F)F [4:2 Fluorotelomer alcohol] (in DMSO)
Procedure: as §1

Test System | level (log10) ([1]; 6700 nM) | level (log10) ([1]; 20000 nM) | level (log10) ([1]; 60000 nM) | level (log10) ([2]; 1100 nM) | level (log10) ([2]; 3300 nM) | level (log10) ([2]; 10000 nM) | level (log10) ([3]; 6700 nM) | level (log10) ([3]; 20000 nM) | level (log10) ([3]; 60000 nM) | level (log10) ([4]; 6700 nM) | level (log10) ([4]; 20000 nM) | level (log10) ([4]; 60000 nM) | level (log10) ([5]; 6700 nM) | level (log10) ([5]; 20000 nM) | level (log10) ([5]; 60000 nM) | level (log10) ([6]; 6700 nM) | level (log10) ([6]; 20000 nM) | level (log10) ([6]; 60000 nM)
3C:CD106/VCAM-1 | -0.007 ± 0.0071 | -0.0145 ± 0.035 | -0.0265 ± 0.0078 | -0.0075 ± 0.022 | -0.0055 ± 0.028 | -0.0005 ± 0.028 | -0.0205 ± 0.0021 | -0.018 ± 0.0042 | -0.007 ± 0.0057 | -0.0575 ± 0.03 | -0.0805 ± 0.025 | -0.157 ± 0.017 | -0.0195 ± 0.018 | -0.0215 ± 0.03 | -0.0085 ± 0.023 | -0.0205 ± 0.016 | -0.011 ± 0.011 | -0.0095 ± 0.011
HDF3CGF:TIMP-2 | 0.019 ± 0.025 | 0.029 ± 0.055 | 0.005 ± 0.057 | 0.011 ± 0.0042 | -0.0035 ± 0.0064 | -0.013 ± 0.047 | 0.003 ± 0.0014 | 0.0255 ± 0.0035 | 0.0145 ± 0.00071 | -0.0175 ± 0.013 | -0.0595 ± 0.028 | -0.082 ± 0.03 | -0.042 ± 0.052 | -0.041 ± 0.045 | -0.0265 ± 0.013 | -0.0305 ± 0.026 | -0.01 ± 0.017 | -0.044 ± 0.027
3C:CCL2/MCP-1 | -0.012 ± 0.0028 | -0.006 ± 0.0028 | 0.031 ± 0.041 | -0.0075 ± 0.0035 | -0.0195 ± 0.00071 | 0.001 ± 0.034 | -0.006 ± 0.0014 | -0.0175 ± 0.0092 | 0.002 ± 0.027 | 0.001 ± 0.011 | -0.0065 ± 0.0064 | 0.0015 ± 0.037 | 0.0005 ± 0.0092 | 0.0035 ± 0.012 | 0.0015 ± 0.0021 | -0.0545 ± 0.074 | -0.0225 ± 0.044 | 0.032 ± 0.011
CASM3C:PAI-I | -0.0015 ± 0.0021 | 0.0005 ± 0.0035 | 0.0095 ± 0.0064 | -0.002 ± 0.0014 | -0.0005 ± 0.0035 | 0.009 ± 0.0099 | -0.006 ± 0.0099 | -0.006 | 0.012 ± 0.0042 | -0.0115 ± 0.012 | -0.019 ± 0.0057 | -0.0145 ± 0.012 | 0.0075 ± 0.025 | 0.007 ± 0.013 | 0.0035 ± 0.0021 | -0.0085 ± 0.011 | 0.001 ± 0.017 | -0.0015 ± 0.021
KF3CT:TIMP-2 | -0.0015 ± 0.005 | 0.007 ± 0.0042 | 0.008 ± 0.0071 | -0.0075 ± 0.013 | -0.0105 ± 0.011 | -0.001 ± 0.017 | 0.0065 ± 0.042 | -0.0055 ± 0.018 | -0.006 ± 0.016 | 0.006 ± 0.048 | -0.016 ± 0.021 | 0.039 ± 0.052 | -0.0315 ± 0.039 | -0.0015 ± 0.052 | -0.0125 ± 0.0035 | -0.0185 ± 0.14 | -0.0295 ± 0.074 | 0.004 ± 0.054
lMphg:sIL-10 | 0 ± 0.03 | -0.017 ± 0.0014 | -0.0345 ± 0.023 | -0.0195 ± 0.0021 | -0.0265 ± 0.084 | -0.05 ± 0.072 | -0.175 ± 0.042 | -0.17 ± 0.037 | -0.216 ± 0.0057 | -0.2 ± 0.0071 | -0.325 ± 0.029 | -0.547 ± 0.028 | -0.0325 ± 0.005 | -0.062 ± 0.075 | -0.003 ± 0.12 | -0.0195 ± 0.0078 | -0.0385 ± 0.022 | -0.025 ± 0.0099
CASM3C:Serum Amyloid A | -0.0435 ± 0.015 | -0.0465 ± 0.0064 | -0.0075 ± 0.081 | -0.005 ± 0.014 | 0.0105 ± 0.036 | 0.04 ± 0.03 | -0.013 ± 0.038 | -0.0215 ± 0.033 | -0.022 ± 0.035 | -0.013 ± 0.021 | -0.0185 ± 0.0092 | -0.005 ± 0.038 | -0.008 ± 0.013 | 0.064 ± 0.059 | 0.159 ± 0.0057 | -0.081 ± 0.081 | -0.0345 ± 0.023 | -0.013 ± 0.1
CASM3C:CCL2/MCP-1 | -0.01 ± 0.011 | -0.008 ± 0.0057 | 0.017 ± 0.031 | 0 ± 0.0042 | -0.008 ± 0.0028 | 0.0055 ± 0.005 | -0.0175 ± 0.011 | -0.024 ± 0.0057 | 0.0015 ± 0.019 | -0.03 ± 0.0028 | -0.0425 ± 0.00071 | -0.0465 ± 0.022 | -0.016 ± 0.013 | -0.016 ± 0.0085 | 0.0165 ± 0.039 | -0.023 ± 0.038 | -0.0055 ± 0.039 | -0.008 ± 0.05
